{"source": "patent US20240218084A1", "about": "“METHOD FOR PURIFYING FOMES OFFICINALIS POLYSACCHARIDE BY SEQUENTIAL SIMULATED MOVING CHROMATOGRAPHY” (HEILONGJIANG BAYI AGRICULTURAL UNIVERSITY, priority 2022, published 2024)", "test_system": "Macrophage RAW264.7", "test": "NO production by macrophage RAW264.7 stimulated with polysaccharide (Griess reagent)", "type": "cell-based", "conditions": "RAW264.7 cells, positive control 1 μg/mL lipopolysaccharide (LPS), 24 h incubation, supernatant, 540 nm", "description": "Macrophage RAW264.7 is stimulated using Fomes officinalis polysaccharides prepared in Embodiments 1-3, and the concentrations of NO produced therefrom are determined, and the results are shown in Table 1. Specific experimental methods: 100 microliters (L) of RAW264.7 cells (1×10^6 cells/mL) are added to 96 microtiter plates and pre-cultured in a 37° C. 5% CO2 incubator for 24 hours (h). The supernatant is discarded, and 200 μL of 5 micrograms per milliliter (μg/mL) polysaccharide solution is added to the cells, the culture solution is used as a negative control, and 1 μg/mL lipopolysaccharide (LPS) is used as a positive control, then the cells are incubated for 24 h. To determine the NO level in the supernatant, 100 μL of supernatant is added with 100 μL of Griess reagent, and the absorbance is measured at 540 nm after 10 min of reaction at room temperature and protected from light using an enzyme labeler (Biotek instruments, Winooski, VT, USA), and the NO yield is calculated by substituting the absorbance value of the samples into the standard curve, using sodium nitrite as the standard."}
{"substance": "lipopolysaccharide [Positive control group]", "values": [{"measurement": "NO yield", "value": 41.06, "unit": "µmol/L"}]}
